The values below come from PubChem BioAssay (NCI).

Some test systems named below: COLO 205 colon; MCF7 breast; MDA-MB-435; BT-549 breast; OVCAR-5 ovarian; SNB-19 CNS; SF-539 CNS; LOX IMVI melanoma; CCRF-CEM leukemia.
Holding throughout (assay): NCI tumour cell line growth inhibition, 48 h

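Interpolation was linear, between the two tested concentrations surrounding the appropriate level; five concentrations were tested over 48 hours in 96-well plates. TGI marks complete inhibition of growth.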

With `O=C(Nc1sccc1S(=O)(=O)c1ccccc1)c1ccccc1`, the TGI in the experiment on COLO 205 colon, in the experiment on MCF7 breast, in the experiment on MDA-MB-435, in the experiment with BT-549 breast, in the experiment with OVCAR-5 ovarian and with SNB-19 CNS was > 100 µM in each case. The TGI in the experiment on SF-539 CNS and in the experiment on LOX IMVI melanoma was > 100 µM throughout.
Turning to `NC(=O)c1c(NC=O)ncn1C1OCC(O)C(O)C1O` (centres undefined), the TGI in the experiment on COLO 205 colon, in the experiment with MDA-MB-435, with BT-549 breast, in the experiment with OVCAR-5 ovarian, in the experiment with CCRF-CEM leukemia and in the experiment on SNB-19 CNS was > 100 µM in each case. For the same compound, the TGI with SF-539 CNS and with LOX IMVI melanoma was > 100 µM in each case.
As for `NC(=Nc1cccc(Cl)c1)c1ccccc1N`, the TGI in the experiment with COLO 205 colon, in the experiment on MCF7 breast, in the experiment on MDA-MB-435, in the experiment with BT-549 breast, in the experiment on OVCAR-5 ovarian and in the experiment with SNB-19 CNS was > 100 µM each time. In addition, in the experiment on LOX IMVI melanoma, the TGI is > 100 µM.
With `CN(C)c1cccc2c1C(=O)C=CC21CCc2ccc(N(C)C)c3c(N(C)C)ccc1c23` (centres undefined), the TGI in the experiment on COLO 205 colon worked out at 29 µM; in the experiment with MCF7 breast it was 27.3 µM; with MDA-MB-435, 28.6 µM; with OVCAR-5 ovarian, 49.6 µM; in the experiment with CCRF-CEM leukemia it was 87.7 µM; with SNB-19 CNS, 33.4 µM. For the same compound, the TGI in the experiment with SF-539 CNS is 35.4 µM; in the experiment with LOX IMVI melanoma, 31.9 µM.
Take `O=C1CCCCC/C1=C\c1ccccc1`: the TGI with COLO 205 colon, in the experiment on MDA-MB-435, in the experiment on BT-549 breast, in the experiment on OVCAR-5 ovarian, in the experiment on SNB-19 CNS and in the experiment with LOX IMVI melanoma was > 100 µM each time.
As for `Cc1cccc(C)c1Nc1nc(C)c(C(=O)CC(=O)C(=O)Nc2c(C(C)C)cccc2C(C)C)s1`, the TGI in the experiment with COLO 205 colon, in the experiment with MCF7 breast, with MDA-MB-435, in the experiment with BT-549 breast, in the experiment with OVCAR-5 ovarian and with SNB-19 CNS was > 100 µM each time. Further, the TGI in the experiment on SF-539 CNS and in the experiment on LOX IMVI melanoma was > 100 µM each time.
For the compound `CCn1c(=O)c2nc(SC)sc2n(-c2ccccc2)c1=O`, the TGI in the experiment with COLO 205 colon, in the experiment on MCF7 breast, in the experiment on MDA-MB-435, in the experiment on OVCAR-5 ovarian, with CCRF-CEM leukemia and in the experiment with SNB-19 CNS was > 100 µM throughout. Also, the TGI with SF-539 CNS and in the experiment on LOX IMVI melanoma was > 100 µM each time.
With `CC/C=C/C[C@H](O)[C@H]1C[C@H]2O[C@H](CC(=O)OC)C[C@H]2O1`, the TGI in the experiment on COLO 205 colon, with MCF7 breast, with MDA-MB-435, in the experiment on BT-549 breast, in the experiment on OVCAR-5 ovarian and in the experiment on CCRF-CEM leukemia was > 100 µM throughout. For the same compound, the TGI in the experiment with SNB-19 CNS and with LOX IMVI melanoma was > 100 µM in each case.
As for `CCN(CC)c1ccc2cc(C(=O)Nc3ccc(C)cc3)c(=N)oc2c1`, the TGI with COLO 205 colon, in the experiment on MCF7 breast, with MDA-MB-435, in the experiment on BT-549 breast, in the experiment on OVCAR-5 ovarian and in the experiment with CCRF-CEM leukemia was > 100 µM in each case. In addition, the TGI in the experiment on SNB-19 CNS and in the experiment with LOX IMVI melanoma was > 100 µM in each case.
For `O=S(=O)(O)c1ccc2c(N=Nc3ccc(Cl)cc3)c(O)ccc2c1`, the TGI in the experiment on COLO 205 colon, in the experiment on MDA-MB-435, in the experiment with BT-549 breast, with OVCAR-5 ovarian, in the experiment on CCRF-CEM leukemia and in the experiment on SNB-19 CNS was > 100 µM throughout. Moreover, the TGI in the experiment with LOX IMVI melanoma is > 100 µM.
Regarding `COc1ccc(-n2c(=O)n(-c3ccccc3)c(=O)n2-c2ccc(OC)cc2)cc1`, the TGI in the experiment with COLO 205 colon, with MCF7 breast, in the experiment on MDA-MB-435, in the experiment on OVCAR-5 ovarian, with CCRF-CEM leukemia and in the experiment on SNB-19 CNS was > 100 µM each time. Also, the TGI with SF-539 CNS and in the experiment with LOX IMVI melanoma was > 100 µM throughout.
As to `NC1Cc2ccccc2OC1=O` (centres undefined), the TGI with COLO 205 colon, in the experiment with MCF7 breast, in the experiment with MDA-MB-435, in the experiment on BT-549 breast, in the experiment on OVCAR-5 ovarian and in the experiment with SNB-19 CNS was > 100 µM each time. Also, the TGI with SF-539 CNS is > 100 µM.
Turning to `C(=Nc1ccc(-c2nc3ccccc3[nH]2)cc1)c1ccco1`, the TGI in the experiment on COLO 205 colon, with MCF7 breast, with MDA-MB-435, with BT-549 breast, with OVCAR-5 ovarian and with CCRF-CEM leukemia was > 100 µM throughout. The TGI in the experiment with SF-539 CNS and in the experiment with LOX IMVI melanoma was > 100 µM in each case.
Regarding `CCOC(=O)c1c(N2CCCC2)ncn(C)c1=S`, the TGI with COLO 205 colon, with MCF7 breast, with MDA-MB-435, in the experiment with OVCAR-5 ovarian, in the experiment on CCRF-CEM leukemia and in the experiment with SNB-19 CNS was > 100 µM throughout. The TGI in the experiment with SF-539 CNS and in the experiment on LOX IMVI melanoma was > 100 µM throughout.
For `COc1cccc2cc(C(C)=O)c(=O)oc12`, the TGI in the experiment on COLO 205 colon, in the experiment with MCF7 breast, in the experiment with MDA-MB-435, in the experiment on BT-549 breast, in the experiment on OVCAR-5 ovarian and in the experiment on CCRF-CEM leukemia was > 100 µM throughout. Moreover, the TGI in the experiment on SF-539 CNS and with LOX IMVI melanoma was > 100 µM in each case.
As for `CC1(C)CC(=O)c2c(nc3c(ccc4ccccc43)c2-c2ccc(NC(=O)CCCCC(=O)Nc3ccc(-c4c5c(nc6c4ccc4ccccc46)CC(C)(C)CC5=O)cc3)cc2)C1`, the TGI in the experiment on COLO 205 colon was 65.1 µM; in the experiment with MCF7 breast, > 100 µM; in the experiment on MDA-MB-435, > 100 µM; in the experiment on OVCAR-5 ovarian, > 100 µM; in the experiment with CCRF-CEM leukemia, 78.3 µM; in the experiment with SNB-19 CNS, > 100 µM. Also, the TGI in the experiment with SF-539 CNS came to 46.6 µM; in the experiment on LOX IMVI melanoma, 33.3 µM.
In the case of `COc1ccc2nc3n(c2c1)C(=O)c1ccccc1-3`, the TGI in the experiment with COLO 205 colon, in the experiment with MCF7 breast, in the experiment with OVCAR-5 ovarian, with CCRF-CEM leukemia, in the experiment on SNB-19 CNS and in the experiment with SF-539 CNS was > 100 µM each time.
